Source: patent publication US8425925B2, “Pesticidal tag” (priority 2007, dated 2013)
Like-named read-outs stand apart in the source and are kept apart here.

What was measured:
[1] = tested on: pyrethroid-resistant (PY-Resistant) horn fly (Haematobia irritans irritans) strain; format: in vivo
Description: (§1) A comparison of ivermectin formulations is made to determine their toxicity to horn fly (Haematobia irritans irritans) strains. Three formulations are tested: ivermectin alone, ivermectin formulated with epoxidized soybean oil (ESO), and ivermectin formulated with piperonyl butoxide (PBO). Both pyrethroid-resistant (PY-Resistant) and pyrethroid-susceptible (PY-Susceptible) horn fly strains are tested. […] See D C Sheppard & N C Hinkle, “A field procedure using disposable materials to evaluate horn fly insecticide resistance,” J. Agric. Entomol. 4:87-89 (1987).
(§2) Table 1 presents the contact toxicity results in units of μg/cm^2, computed using Log-Probit Analysis. See, e.g., V. K. Borooah, Logit and Probit (2002) (Sage Publications, Thousand Oaks, Calif., USA).
(§3) Further tests, similar to those of the Ivermectin tests described above, were performed using Abamectin compositions.

[2] = tested on: pyrethroid-susceptible (PY-Susceptible) horn fly (Haematobia irritans irritans) strain; format: in vivo
Description: as §1, §2, §3

[3] = 4-hour exposure, Log-Probit Analysis
[4] = PY-Susceptible, 4-hour exposure, Log-Probit Analysis

Ivermectin
Lethal Concentration LC50 [1, 3]: 93.8 μg/cm^2
Lethal Concentration LC90 [1, 3]: 478.0 μg/cm^2
Lethal Concentration LC50 [2, 4]: 165.6 μg/cm^2
Lethal Concentration LC90 [2, 4]: 418.3 μg/cm^2

Abamectin
Lethal Concentrations (cell spanning LC50 and LC90) ([1]; 2 hour contact): no mortality
Lethal Concentrations LC50 ([1]; 4 hour contact): 138.5 microgram/sq. cm
Lethal Concentrations LC90 ([1]; 4 hour contact): 1,089 microgram/sq. cm
Lethal Concentrations LC50 ([1]; 8 hour contact): 1.19 microgram/sq. cm
Lethal Concentrations LC90 ([1]; 8 hour contact): 7.60 microgram/sq. cm
PY-Susceptible versus PY-Resitant RR50 (resistance ratio) ([2]; 8 hour contact, LC50 of PY-susceptible divided by LC50 of PY-resistant horn flies): 31.64
PY-Susceptible versus PY-Resitant RR90 (resistance ratio) ([2]; 8 hour contact, LC90 of PY-susceptible divided by LC90 of PY-resistant horn flies): 23.05
Lethal Concentrations (cell spanning LC50 and LC90) ([2]; PY-Susceptible, 2 hour contact): no mortality
Lethal Concentrations (cell spanning LC50 and LC90) ([2]; PY-Susceptible, 4 hour contact): no mortality
Lethal Concentrations LC50 ([2]; PY-Susceptible, 8 hour contact): 37.65 microgram/sq. cm
Lethal Concentrations LC90 ([2]; PY-Susceptible, 8 hour contact): 175.16 microgram/sq. cm
